Laboratory results: DBAASP
Converted amounts (≈) assume the structure as drawn. Each block holds one compound with its values, some of them ahead of it.

Columns and labels:
Experiment in all cases: ≥ marks a high value that may be exact or a test limit, other limits are often not marked, values filed in µg/mL are converted to µM
[1] = tested on: Bacillus subtilis KCTC 3068
[2] = tested on: Escherichia coli KCTC 1682
[3] = tested on: Pseudomonas aeruginosa KCTC 1637
[4] = tested on: Salmonella typhimurium KCTC 1926
[5] = tested on: Staphylococcus aureus KCTC 1621
[6] = tested on: Staphylococcus epidermidis KCTC 1917
[7] = tested on: Acinetobacter baumannii ATCC 19606
Bacillus subtilis = tested on: Bacillus subtilis
Escherichia coli = tested on: Escherichia coli
Staphylococcus aureus = tested on: Staphylococcus aureus
Bacillus cereus = tested on: Bacillus cereus

SMILES: CC[C@H](C)[C@H](NC(=O)[C@@H]1CCCN1C(=O)[C@H](CC(C)C)NC(=O)[C@@H](N)Cc1ccccc1)C(=O)N[C@@H](C)C(=O)NCC(=O)N[C@@H](CCCCN)C(=O)N[C@@H](CC(C)C)C(=O)N[C@@H](CC(C)C)C(=O)N[C@@H](CO)C(=O)NCC(=O)N[C@@H](CC(C)C)C(=O)N[C@@H](CO)C(=O)NCC(=O)N[C@@H](CC(C)C)C(=O)N[C@@H](CC(C)C)C(=O)O [FLPIAGKLLSGLSGLL]
MIC [7]: > 62.5 µM

SMILES: CC[C@H](C)[C@H](NC(=O)[C@H](Cc1c[nH]c2ccccc12)NC(=O)[C@H](CO)NC(=O)[C@H](CO)NC(=O)[C@H](CC(C)C)NC(=O)[C@H](C)NC(=O)[C@@H]1CCCN1C(=O)[C@H](CC(C)C)NC(=O)CN)C(=O)N[C@@H](CCCCN)C(=O)N[C@@H](CCCN=C(N)N)C(=O)N[C@@H](CCCCN)C(=O)N[C@@H](CCCN=C(N)N)C(=O)N[C@@H](CCC(N)=O)C(=O)N[C@@H](CCC(N)=O)C(N)=O [GLPALSSWIKRKRQQ]
MIC (Bacillus subtilis): 22.1 µM (≈ 39 µg/mL)
MIC (Escherichia coli): 176 µM (≈ 311 µg/mL)
MIC (Staphylococcus aureus): 8.26 µM (≈ 14.6 µg/mL)

SMILES: CC[C@H](C)[C@H](N)C(=O)N[C@@H](CC(N)=O)C(=O)N[C@@H](Cc1c[nH]c2ccccc12)C(=O)N[C@@H](CCCCN)C(=O)N[C@@H](CCCCN)C(=O)N[C@H](C(=O)N[C@@H](Cc1ccccc1)C(=O)N[C@@H](CCC(=O)O)C(=O)N[C@@H](CCCCN)C(=O)N[C@H](C(=O)N[C@@H](CO)C(=O)N[C@@H](CC(N)=O)C(=O)N[C@@H](CC(C)C)C(=O)N[C@H](C(N)=O)C(C)C)C(C)C)[C@@H](C)CC [INWKKIFEKVSNLV]
MIC (Bacillus subtilis): 22.5 µM (≈ 38.6 µg/mL)
MIC (Escherichia coli): 12.5 µM (≈ 21.5 µg/mL)

SMILES: CC[C@H](C)[C@H](N)C(=O)N[C@@H](Cc1c[nH]c2ccccc12)C(=O)N[C@@H](CC(N)=O)C(=O)N[C@@H](CCCCN)C(=O)N[C@H](C(=O)N[C@@H](C)C(=O)N[C@@H](CCCCN)C(=O)N[C@@H](CO)C(=O)N[C@H](C(=O)NCC(=O)N[C@@H](CCCCN)C(=O)N[C@H](C(=O)N[C@@H](CC(C)C)C(=O)N[C@@H](CCC(=O)O)C(=O)N[C@@H](CCCCN)C(=O)N[C@@H](C)C(=O)N[C@@H](CC(C)C)C(N)=O)C(C)C)[C@@H](C)CC)[C@@H](C)CC [IWNKIAKSIGKVLEKAL]
MIC (Bacillus subtilis): ≥ 35 µM
MIC (Escherichia coli): 15 µM (≈ 28.7 µg/mL)

SMILES: CC[C@H](C)[C@H](NC(=O)[C@H](CCC(=O)O)NC(=O)[C@H](CCC(=O)O)NC(=O)[C@H](CO)NC(=O)[C@H](CC(C)C)NC(=O)[C@H](CC(C)C)NC(=O)[C@H](Cc1c[nH]c2ccccc12)NC(=O)[C@H](CC(N)=O)NC(=O)[C@H](CCC(=O)O)NC(=O)CNC(=O)[C@H](CC(N)=O)NC(=O)[C@H](CCCCN)NC(=O)[C@H](CC(C)C)NC(=O)[C@H](CO)NC(=O)[C@H](Cc1ccc(O)cc1)NC(=O)[C@@H]1CCCN1)C(=O)N[C@H](C(=O)N[C@@H](CCCN=C(N)N)C(=O)N[C@@H](Cc1ccc(O)cc1)C(=O)N1CCC[C@H]1C(=O)O)[C@@H](C)CC [PYSLKNGENWLLSEEIIRYP]
MIC (Bacillus cereus): ≥ 106 µM
MIC (Escherichia coli): > 106 µM

SMILES: CC(C)C[C@H](NC(=O)[C@@H](N)Cc1ccccc1)C(=O)NCC(=O)N[C@@H](CCCCN)C(=O)N[C@H](C(=O)N[C@@H](Cc1ccccc1)C(=O)N[C@@H](CCCCN)C(=O)NCC(=O)N[C@@H](C)C(=O)N[C@@H](CO)C(=O)N[C@@H](CCCCN)C(=O)N[C@H](C(=O)N[C@H](C(=O)N1CCC[C@H]1C(=O)N[C@@H](C)C(=O)N[C@H](C(=O)N[C@@H](Cc1ccccc1)C(=O)NCC(=O)N[C@@H](CCCCN)C(=O)N[C@H](C(=O)O)C(C)C)C(C)C)C(C)C)C(C)C)C(C)C [FLGKVFKGASKVVPAVFGKV]
MIC (Bacillus cereus): ≥ 123 µM
MIC (Escherichia coli): > 123 µM
MIC (Staphylococcus aureus): > 123 µM

SMILES: CC[C@H](C)[C@H](NC(=O)[C@@H]1CCCN1C(=O)[C@@H](NC(=O)[C@H](CO)NC(=O)[C@H](CO)NC(=O)[C@@H](N)CO)[C@@H](C)CC)C(=O)N[C@@H](CCCCN)C(=O)N[C@@H](CCSC)C(=O)N[C@H](C(=O)N[C@@H](CC(C)C)C(=O)N[C@H](C(=O)N[C@@H](CCCN=C(N)N)C(=O)N[C@@H](C)C(=O)N[C@@H](CC(C)C)C(=O)N[C@H](C(=O)N[C@@H](Cc1ccccc1)C(=O)N[C@H](C(=O)N[C@@H](CCCCN)C(=O)N[C@@H](CO)C(=O)NCC(=O)O)C(C)C)C(C)C)C(C)C)C(C)C [SSSIPIKMVLVRALVFVKSG]
MIC (Bacillus cereus): ≥ 120 µM
MIC (Escherichia coli): > 120 µM

Results, then the compound that gave them:

MIC [1]: 2 µM (≈ 3.85 µg/mL)
MIC [2]: 8 µM (≈ 15.4 µg/mL)
MIC [3]: 16 µM (≈ 30.8 µg/mL)
MIC [4]: 4 µM (≈ 7.69 µg/mL)
MIC [5]: 2 µM (≈ 3.85 µg/mL)
MIC [6]: 8 µM (≈ 15.4 µg/mL)
SMILES: CC[C@H](C)[C@H](NC(=O)[C@H](CCCN=C(N)N)NC(=O)[C@H](CCCN=C(N)N)NC(=O)[C@@H](NC(=O)[C@@H](NC(=O)[C@H](CCCN=C(N)N)NC(=O)[C@H](CCCCN)NC(=O)[C@@H](N)Cc1c[nH]c2ccccc12)[C@@H](C)CC)C(C)C)C(=O)N[C@@H](Cc1c[nH]c2ccccc12)C(=O)N[C@@H](CCCN=C(N)N)C(=O)N[C@@H](Cc1c[nH]c2ccccc12)C(=O)N[C@@H](CC(C)C)C(=O)N[C@@H](CCCN=C(N)N)C(N)=O [WKRIVRRIWRWLR]

MIC [1]: 4 µM (≈ 6.61 µg/mL)
MIC [2]: 8 µM (≈ 13.2 µg/mL)
MIC [3]: 8 µM (≈ 13.2 µg/mL)
MIC [4]: 8 µM (≈ 13.2 µg/mL)
MIC [5]: 8 µM (≈ 13.2 µg/mL)
MIC [6]: 4 µM (≈ 6.61 µg/mL)
SMILES: CC(C)C[C@H](NC(=O)[C@H](CC(C)C)NC(=O)[C@H](CCCCN)NC(=O)[C@H](CC(C)C)NC(=O)[C@H](CC(C)C)NC(=O)[C@H](CCCCN)NC(=O)[C@H](CCCCN)NC(=O)[C@H](CC(C)C)NC(=O)[C@H](CC(C)C)NC(=O)[C@H](CCCCN)NC(=O)[C@H](CCCCN)NC(=O)[C@H](Cc1c[nH]c2ccccc12)NC(=O)[C@@H](N)CCCCN)C(N)=O [KWKKLLKKLLKLL]

MIC (Bacillus subtilis): 3.12 µM (≈ 5.6 µg/mL)
MIC (Escherichia coli): 49.5 µM (≈ 88.9 µg/mL)
MIC (Staphylococcus aureus): 3.12 µM (≈ 5.6 µg/mL)
SMILES: CC[C@H](C)[C@H](NC(=O)[C@H](CC(C)C)NC(=O)[C@H](C)NC(=O)[C@@H]1CCCN1C(=O)[C@H](CC(C)C)NC(=O)CN)C(=O)N[C@@H](CO)C(=O)N[C@@H](Cc1c[nH]c2ccccc12)C(=O)N[C@H](C(=O)N[C@@H](CCCCN)C(=O)N[C@@H](CCCN=C(N)N)C(=O)N[C@@H](CCCCN)C(=O)N[C@@H](CCCN=C(N)N)C(=O)N[C@@H](CCC(N)=O)C(=O)N[C@@H](CCC(N)=O)C(N)=O)[C@@H](C)CC [GLPALISWIKRKRQQ]

MIC (Bacillus cereus): ≥ 58.2 µM
MIC (Escherichia coli): 14.6 µM (≈ 32 µg/mL)
MIC (Staphylococcus aureus): > 58.2 µM
SMILES: CC(C)C[C@H](NC(=O)[C@@H](N)Cc1ccccc1)C(=O)NCC(=O)N[C@@H](CCCCN)C(=O)N[C@H](C(=O)N[C@@H](Cc1ccccc1)C(=O)N[C@@H](CCCCN)C(=O)N[C@@H](CCCCN)C(=O)N[C@@H](C)C(=O)N[C@@H](CO)C(=O)N[C@@H](CCCCN)C(=O)N[C@H](C(=O)N[C@@H](Cc1ccccc1)C(=O)N1CCC[C@H]1C(=O)N[C@@H](C)C(=O)N[C@H](C(=O)N[C@@H](Cc1ccccc1)C(=O)NCC(=O)N[C@@H](CCCCN)C(=O)N[C@H](C(=O)O)C(C)C)C(C)C)C(C)C)C(C)C [FLGKVFKKASKVFPAVFGKV]

MIC (Bacillus subtilis): 0.423 µM (≈ 0.65 µg/mL)
MIC (Escherichia coli): 27.1 µM (≈ 41.7 µg/mL)
MIC (Staphylococcus aureus): 0.845 µM (≈ 1.3 µg/mL)
SMILES: CC[C@H](C)[C@H](NC(=O)[C@H](CC(C)C)NC(=O)[C@H](C)NC(=O)[C@@H]1CCCN1C(=O)[C@H](CC(C)C)NC(=O)CN)C(=O)N[C@@H](CO)C(=O)N[C@@H](Cc1c[nH]c2ccccc12)C(=O)N[C@H](C(=O)N[C@@H](CCCCN)C(=O)N[C@@H](CCCN=C(N)N)C(=O)N[C@@H](CCCCN)C(=O)N[C@@H](CCCN=C(N)N)C(N)=O)[C@@H](C)CC [GLPALISWIKRKR]

MIC [2]: 16 µM (≈ 22.9 µg/mL)
MIC [3]: 16 µM (≈ 22.9 µg/mL)
MIC [4]: 16 µM (≈ 22.9 µg/mL)
MIC [5]: 4 µM (≈ 5.72 µg/mL)
MIC [6]: ≥ 32 µM
SMILES: CC[C@H](C)[C@H](N)C(=O)N[C@@H](CC(C)C)C(=O)NCC(=O)N[C@@H](CCCCN)C(=O)N[C@H](C(=O)N[C@@H](CC(C)C)C(=O)N[C@@H](CCC(=O)O)C(=O)NCC(=O)N[C@H](C(=O)N[C@@H](CCCCN)C(=O)N[C@@H](CO)C(=O)N[C@@H](CC(C)C)C(=O)N[C@@H](Cc1ccccc1)C(N)=O)[C@@H](C)CC)[C@@H](C)CC [ILGKILEGIKSLF]

MIC (Bacillus cereus): ≥ 124 µM
MIC (Escherichia coli): > 124 µM
SMILES: CSCC[C@H](NC(=O)[C@H](CO)NC(=O)[C@H](Cc1ccccc1)NC(=O)[C@@H](NC(=O)[C@H](C)NC(=O)[C@@H]1CCCN1C(=O)[C@H](Cc1ccccc1)NC(=O)[C@@H](NC(=O)[C@H](CCCCN)NC(=O)[C@H](CO)NC(=O)[C@H](C)NC(=O)[C@H](CC(C)C)NC(=O)[C@H](CCCCN)NC(=O)CNC(=O)[C@@H](NC(=O)[C@H](C)NC(=O)[C@@H](N)CO)C(C)C)C(C)C)C(C)C)C(=O)N[C@H](C(=O)N[C@H](C(=O)N[C@@H](CCCCN)C(=O)O)[C@@H](C)O)C(C)C [SAVGKLASKVFPAVFSMVTK]

MIC (Bacillus subtilis): 0.897 µM (≈ 1.6 µg/mL)
MIC (Escherichia coli): 3.5 µM (≈ 6.25 µg/mL)
MIC (Staphylococcus aureus): 1.74 µM (≈ 3.1 µg/mL)
SMILES: CC[C@H](C)[C@H](NC(=O)[C@H](CC(C)C)NC(=O)[C@H](C)NC(=O)[C@H](CO)NC(=O)[C@H](CC(C)C)NC(=O)CN)C(=O)N[C@@H](CO)C(=O)N[C@@H](Cc1c[nH]c2ccccc12)C(=O)N[C@H](C(=O)N[C@@H](CCCCN)C(=O)N[C@@H](CCCN=C(N)N)C(=O)N[C@@H](CCCCN)C(=O)N[C@@H](CCCN=C(N)N)C(=O)N[C@@H](CCC(N)=O)C(=O)N[C@@H](CCC(N)=O)C(N)=O)[C@@H](C)CC [GLSALISWIKRKRQQ]
